The results in this text go back to patent US10251849B2, “Sublingual compositions including epinephrine nanoparticles” (NOVA SOUTHEASTERN UNIVERSITY, priority 2012, dated 2019).

Counter-ions that a name gives are not always drawn. Like-named read-outs stand apart in the source and are kept apart here.

The procedure of series [1]:
Supernatant solution was withdrawn and filtered through 0.22 μm nylon syringe filters to be analyzed for the quantification of dissolved epinephrine.
Analysis and condition were performed according to USP 26th edition, 2003 “Epinephrine Injection Monograph.”

The nature of series [2]: UV absorptivity of oxidative products of epinephrine at 310 nm. To be noted: controls, not stored, 4 mg/mL. The class given is physicochemical. As to the method:
The supernatant was visually inspected against white background for any discoloration (USP/NF. Official Monograph: Epinephrine Injection. 31/26 ed. Rockville, Md.: United States Pharmacopeial Convention, Inc.; 2008) and then filtered and diluted to make 4 mg/mL. […] The absorptivity of all samples and controls was calculated by dividing the absorbance by the product of the concentration of the drug (g/L) and the path length (cm) of the cell used to measure the absorbance (USP/NF. Physical Tests: Spectrophotometery and Light-Scattering (851). 31/26 ed. Rockville, Md.: United States Pharmacopeial Convention, Inc.; 2008).
The absorptivity of oxidative products of epinephrine in the tablets from each formulation at each storage condition and in controls was statistically compared by two-way ANOVA and Tukey-Kramer tests.

The procedure of series [3]:
Samples were prepared in triplicates for each concentration, n=3. All prepared samples were processed using LV-1 High Shear Fluid Processor “Microfluidizer” (Microfluidics, Newton, Mass.) equipped with G10Z reaction chamber under various pressures ranging from 15 to 30 KPsi for single or several passes. The microfluidizer-receiving coil was immersed in ice to reduce the heat produced during the process for heat-sensitive drugs. The particle size and potential of the produced nanosuspension were measured. The nanosuspension was centrifuged at 15,000 rpm and 15° C. for 30 minutes to collect the nanoparticles, and the solvent was then removed. The collected nanoparticles were completely dried by speed vacuum concentrator or lyophilization.
(§1) Nanoparticle Characterization: The particle size distribution and zeta potential of the nanosuspension was measured before and after size reduction by volume and by intensity using Mastersizer (Malvern) and Zetasizer Nano-ZS90 (Malvern), respectively. The average of 3 measurements for each sample was reported.
The source holds these as a separate data set.

For series [4] the following is noted: various concentrations. As to the method:
as §1

Regarding `CNC[C@H](O)c1ccc(O)c(O)c1` [Epinephrine Base, epinephrine], the “Amount Dissolved” value in series [1] (solubility in water) was found to be 53.37 µg/mL.

In the case of `CNC[C@H](O)c1ccc(O)c(O)c1` [epinephrine bitartrate, (−)-3,4-dihydroxy-α-[(methylamino)methyl]benzyl alcohol (+)-tartrate (1:1) salt], the “Absorptivity of Oxidative Products of Epinephrine (Mean ± SD)” value in series [2] turned out to be 0.001 ± 0.000. For the same compound, the “Amount Dissolved” value in series [1] (solubility in acetone) was found to be 31.28 µg/mL; in series [1] (solubility in acetonitrile), 15.46 µg/mL; in series [1] (solubility in chloroform) it was 1.87 µg/mL; in series [1] (solubility in ethyl acetate), 12.60 µg/mL; in series [1] (solubility in hexane) it was 0.53 µg/mL; in series [1] (solubility in isopropyl alcohol) it was 12.30 µg/mL. Besides, the “Amount Dissolved” value in series [1] (solubility in methanol) turned out to be 209.01 µg/mL; in series [1] (solubility in tetrahydrofuran (THF)), 155.18 µg/mL. The “Mean ± SD particles size” value in series [3] (0 passes, before processing, n = 6) was 131,800 ± 10500 nm. For the same compound, the “polydispersity (pdi)” value in series [3] (0.7 mg/ml, 1 pass at 30 KPsi) is given as “(0.257 + 0.060)”; in series [3] (0.7 mg/ml, 2 passes at 30 KPsi), “(0.119 ± 0.052)”; in series [3] (0.7 mg/ml, 4 passes at 30 KPsi) it was “(0.217 ± 0.035)”; in series [3] (0.7 mg/ml, 5 passes at 30 KPsi), “(0.170 ± 0.070)”; in series [3] (0.7 mg/ml, 6 passes at 30 KPsi) it was “(0.195 ± 0.067)”; in series [3] (1.4 mg/ml, 1 pass at 30 KPsi), “(0.239 + 0.044)”. The “polydispersity (pdi)” value in series [3] (1.4 mg/ml, 2 passes at 30 KPsi) was “(0.158 ± 0.021)”; in series [3] (1.4 mg/ml, 4 passes at 30 KPsi), “(0.178 ± 0.039)”; in series [3] (3.5 mg/ml, 1 pass at 30 KPsi) it was “(0.335 + 0.112)”; in series [3] (3.5 mg/ml, 2 passes at 30 KPsi), “(0.576 ± 0.080)”; in series [3] (4.5 mg/ml, 1 pass at 30 KPsi), “(0.321 + 0.060)”; in series [3] (4.5 mg/ml, 2 passes at 30 KPsi), “(0.315 ± 0.055)”. The “particle size before size reduction” value in series [3] (as stated in summary text) is 150.7±5 μm. Moreover, the “10th percentile (Dv0.1)” value in series [3] (before processing, n = 6) is given as 39.8 ± 3.0 μm. For the same compound, the “90th percentile (Dv0.9)” value in series [3] (before processing, n = 6) is 254.8 ± 20.1. In addition, the “median (Dv0.5)” value in series [3] (before processing, n = 6) worked out at 113.6 ± 9.1 μm. Moreover, the “color of the fabricated nanosuspension” value in series [4] was “no change in color”.
